# Experimental data as given in US20070196514A1, “Prostate cancer treatment with glycogen synthase kinase-3beta inhibitors” (priority 2006, published 2007).
# How the values were obtained:
# C4-2 cells [1] = assay: MTT cell growth assay; assay type: cell-based, human; details: equimolecular concentrations of LiCl, NaCl, KCl, three days
# Description: (§1) For MTT-based cell growth assays, cells seeded in 96-well plates were serum-starved for 48 hours, and were then treated with vehicle or different reagents for different time periods as indicated in the figures. MTT assay were carried out using a pre-assembled kit (Sigma) according to the manufacturer's manual.
# (§2) To rule out the eventual intervention of the chloride anion and the osmotic disturbance, the effect of LiCl was compared with sodium chloride (“NaCl”) and potassium chloride (“KCl”) at equimolecular concentrations in both LNCaP and PC-3 cell lines. In addition, the androgen-insensitive C4-2 cell line was included. To easily handle the experiments while multiple comparisons were taken in place, a MTT assay was used to assess cell growth.
# PC-3 cells [2] = assay: MTT cell growth assay; assay type: cell-based, human; details: equimolecular concentrations of LiCl, NaCl, KCl, three days
# Description: as §1, §2
# LNCaP cells [3] = assay: MTT cell growth assay; assay type: cell-based, human; details: three days; for cell growth inhibition (MTT): equimolecular concentrations of LiCl, NaCl, KCl; for cell growth (MTT): increasing doses in full culture medium, dose-responsive
# Description: as §1, §2
# Lastly, two GSK-3β-specific small chemical inhibitors, SB216763 and BIO, were used to verify that LiCl-induced suppression of cell growth is due to GSK-3β inhibition. LNCaP cells were seeded as above and then treated with increasing doses of the inhibitors in a full culture medium. Cell growth was assessed three days later by MTT assay.
# AR-null PC-3 cells = details: Mazor 2004; cited from earlier work
# C4-2 cells [4] = assay: cell cycle analysis by flow cytometry (PI); assay type: cell-based, human; details: 12 hours treatment
# Description: (§3) For cell cycle analysis, serum-starved cells were left untreated or treated with different inhibitors for various time periods as indicated in the figures. After trypsinization, the cells were fixed and stained with propidium iodide (“PI”). Cell cycle distribution of PI-labeled cells was analyzed on a fluorescence activated cell sorter (Model EPICS XL-MCL, Beckman-Coulter Co., Fullerton, Calif.) as described previously (Miyake 2001).
# (§4) The effect of GSK-3β SB216763 on cell cycle distribution in AR-null PC-3 and androgen-insensitive C4-2 cell lines were also examined.
# PC-3 cells [5] = assay: cell cycle analysis by flow cytometry (PI); assay type: cell-based, human; details: 12 hours treatment
# Description: as §3, §4
# LNCaP-BclxL xenografts = assay: LNCaP-BclxL xenograft model; assay type: in vivo, castrated nude mice
# Description: All animal studies were conducted under an approved Institutional Animal Care and Use Committee protocol. Single cell suspensions (2×10^6 cells in 0.1 ml of RPMI1640 medium plus 10% FBS) were inoculated subcutaneously (s.c.) into the rear flanks (two sites/mouse) of 6 to 7 weeks old male nude mice (Charles River, Wilmington, Mass.). For protocol A, mice were randomly divided into two groups (5 animals each). On next day after inoculation, one group of animals received i.p. injection of LiCl at a daily dose of 2 mg/kg body weight. LiCl was dissolved in PBS. The control groups of animals received PBS alone in the same volume. Xenograft development and growth were monitored for 8 weeks. The tumor dimensions were measured twice a week. The tumor volume was calculated by the formula of L×W×H×0.5236 (Miyake 2001). At the end of treatment, xenograft tumors were extirpated, and the final tumor size and weight, as well as animal weight were measured. For protocol B, treatment began until tumor became palpable or 50 mm^3 in size, and LiCl or PBS was injected (5 animals each group) as above for a two-week course. Tumor size and weight were measured at the end of treatment. For BrdU in vivo labeling, the animals were injected i.p. with 0.5 ml of a 10-mM BrdU solution (Invitrogen) 2 hours before sacrifice. For experiments involving LNCaP-BclxL SB216763 subline cells (Liao 2005) were inoculated as above, and SB216763 treatment was started two weeks later when palpable xenografts were established. The SB216763 for animal use was purchased from Biomol (Plymouth Meeting, Pa.) and dissolved in a formula containing 50% N,N-dimethylacetamide (“DMA”), 45% polyethylene glycol 400 (“PEG-400”) and 5% Tween-80. SB216763 (2 mg/kilogram/bodyweight) or the solvent in 20 μl volume was injected i.p. three times a week. Tumor growth was monitored as discussed herein. […]
# [6] = estimated serum lithium level in mice; assay type: in vivo; details: about 2 mg/kg of body weight, estimated (Moore 2002)
# Text: Based on these preliminary results, therapeutically effective dosage levels include those substantially below those used for treatment of bipolar disorders with lithium in humans, which are reported to result in a serum level between about 0.2 and 1.5 mEq/L (Noble 2005), and is usually over 0.8 mEq/L.
# [7] = humans; cited from earlier work
# LNCaP cells [8] = assay: Western blot of cell cycle-related proteins; assay type: cell-based, human; details: BIO at different doses for 24 hours
# Description: Western blot was carried out as described previously (Liao 2004, Liao 2003, and Liao 2005). Briefly, cells were pellets and lysed in radio-immunoprecipitation assay (“RIPA”) buffer containing protease inhibitors (Half™ Protease Inhibitor Cocktail Kit, PIERCE, Rockford, Ill.). Proteins were separated on SDS-PAGE gels and transferred to Immuno-Blot™ PVDF membrane (BIO-RAD, Hercules, Calif.). Membranes were blocked in a tris-buffered solution plus Tween 20 (“TBST”) solution with 5% nonfat dry milk and incubated with primary antibodies overnight at 4° C. Immunoreactive signals were detected by horseradish peroxidase-conjugated secondary antibodies (Santa Cruz Biotech., Santa Cruz, Calif.) followed by SuperSingnal® WestFeml® Maximum Sensitivity Substrate (PIERCE).
# To verify those alterations at a protein level, two series experiments were conducted using Western blot technique. The first involved a time-course experiment. After serum starvation, LNCaP cells were left untreated or treated as before with LiCl for up to 24 hours. Cells were harvested at 18-24 hours.
# Next, a dose-response experiment was performed. Following serum starvation for 24 hours, LNCaP cells were treated with BIO at different doses for another 24 hours. Control cells received the vehicle as treatment.
smiles,measurement,setting,value
"[Cl-].[K+] [KCl, potassium chloride]",cell growth inhibition (MTT),C4-2 cells [1],did not cause any significant inhibition
same,cell growth inhibition (MTT),PC-3 cells [2],did not cause any significant inhibition
same,cell growth inhibition (MTT),LNCaP cells [3],did not cause any significant inhibition
"[Cl-].[Na+] [NaCl, sodium chloride]",cell growth inhibition (MTT),C4-2 cells [1],did not cause any significant inhibition
same,cell growth inhibition (MTT),PC-3 cells [2],did not cause any significant inhibition
same,cell growth inhibition (MTT),LNCaP cells [3],did not cause any significant inhibition
"Cn1cc(C2=C(c3ccc(Cl)cc3Cl)C(=O)NC2=O)c2ccccc21 [SB216763, 3-(2,4-Dichlorophenyl)-4-(1-methyl-1H-indol-3yl)-1H-pyrrole-2,5-dione]",growth of AR-null PC-3 cells,AR-null PC-3 cells,did not affect growth
same,cell cycle distribution (S-phase arrest),C4-2 cells [4],arrested these cells in S-phase
same,cell cycle distribution (S-phase arrest),PC-3 cells [5],arrested these cells in S-phase
same,side effects,LNCaP-BclxL xenografts; SB216763 2 mg/kg i.p.,No side effects
same,tumor growth vs control animals,"LNCaP-BclxL xenografts; SB216763 2 mg/kg i.p. every two days, palpable tumors",largely suppressed
same,treatment duration after which difference in tumor volume became significant,LNCaP-BclxL xenografts; SB216763 2 mg/kg i.p. vs vehicle,5 week
same,cell growth (MTT),LNCaP cells [3],significantly suppressed
[Li] [lithium],serum level,[6],about 0.02 mEq/L
same,usual serum level at dosages used for treatment of bipolar disorders,[7],over 0.8 mEq/L
"O=C1Nc2cc(Br)ccc2/C1=C1/Nc2ccccc2/C1=N\O [BIO, 6-bromoindirubin-3′-oxime]",cell growth (MTT),LNCaP cells [3],significantly suppressed
same,p21CIP1 protein expression (Western blot),LNCaP cells [8],increased dramatically
same,"protein levels of cyclins A and E, cdc6 and cdc25C (Western blot)",LNCaP cells [8]; dose-dependent,significantly reduced
